Here are results for 35 compounds from PubChem BioAssay (NCI).

Several values for one entry are separate records, joined by “and”; a condition that tells them apart may be missing. Equal values may be shown once.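 Assay format: 96-well plates, 48-hour exposure. Here, GI50 denotes the concentration required for 50% inhibition of growth. The concentration for full growth arrest is given as TGI.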

Some test systems named below: KM20L2 colon; LXFL 529 NSCLC; M19-MEL melanoma; HS 578T breast; RXF-631 renal; MDA-N.
Common to all, as to test: NCI tumour cell line growth inhibition, 48 h

With `CCc1cccc(C(C)C)c1N1C(=O)C(=O)C(c2nc3ccccc3s2)C(=O)C1=O`, the TGI in the assay on KM20L2 colon, in the assay with LXFL 529 NSCLC and in the assay on M19-MEL melanoma was > 50 µM in each case.
Turning to `N#Cc1c(N)nc(N2CCOCC2)c(C#N)c1-c1cccnc1`, in the assay with HS 578T breast, the GI50 was 66.1 µM and the TGI was > 100 µM.
Take `N#CSCC1CC(O)(c2ccccc2)CC(c2ccc(F)cc2)O1` (stereo not drawn): in the assay on HS 578T breast, the GI50 was 1.96 µM and the TGI is 4.6 µM.
In the case of `CCCCCCCCCCCCCP(=O)(O)OCC`, the TGI in the assay on KM20L2 colon, in the assay on LXFL 529 NSCLC, in the assay with M19-MEL melanoma and with RXF-631 renal was > 100 µM in each case.
In the case of `NC(=O)c1cc(-c2ccc(F)cc2)cc(-c2ccncc2)c1N`, in the assay with HS 578T breast, the GI50 is 5.66 µM and the TGI was > 23.4 µM.
For `CC(C)(C)c1cc2c3c(c1)C(C(F)(F)F)(C(F)(F)F)O[Te]3(C)OC2(C(F)(F)F)C(F)(F)F`, the TGI with KM20L2 colon, in the assay with LXFL 529 NSCLC and with M19-MEL melanoma was > 100 µM throughout.
For `CC(=Nc1ccccc1)C1=C(O)C(Cc2ccccc2)NC1=O` (stereo not drawn), in the assay with HS 578T breast, the GI50 is 0.0354 µM and the TGI was > 100 µM.
The like results for `CC(=O)O[C@]1(C(C)=O)CC[C@H]2[C@@H]3C=C(C)C4=CC(=O)CC[C@]4(C)[C@H]3CC[C@@]21C` were, in that order, > 60.4 µM and > 100 µM.
`O=C(Cn1ccnc1[N+](=O)[O-])c1ccc(F)cc1`: the TGI in the assay on KM20L2 colon, in the assay on LXFL 529 NSCLC and in the assay on M19-MEL melanoma was > 100 µM in each case.
For the compound `COc1cc(OC)c(C2CC=Cc3c(OC)cc(OC)c(OC)c32)cc1OC` (stereo not drawn), the TGI in the assay with KM20L2 colon, in the assay with LXFL 529 NSCLC and in the assay with M19-MEL melanoma was > 100 µM in each case.
With `CC1OC(OC2C(O[C@H]3CC[C@@]4(C)C(=CC[C@H]5[C@@H]6C[C@@H]7O[C@]8(CC[C@H](C)CN8)[C@@H](C)[C@@H]7[C@@]6(C)CC[C@@H]54)C3)OC(CO)C(O)C2OC2OC(CO)C(O)C(O)C2O)C(O)C(O)C1O` (stereo partly drawn), the TGI worked out at 31.2 µM in the assay with HS 578T breast and 36.1 µM with MDA-N.
The corresponding values for `COc1cc(OC)c(/C=C/c2cnc3ccccc3n2)c(OC)c1` are > 10 µM and > 10 µM.
The like results for `COC(=O)CCCC(=O)O` were, in that order, > 100 µM and > 100 µM.
With `COC1OC(COCc2ccc(Cl)cc2)C(OCc2ccc(Cl)cc2)C1N=[N+]=[N-]` (stereo not drawn), the TGI in the assay with KM20L2 colon and in the assay on LXFL 529 NSCLC was > 100 µM throughout.
For the compound `COc1ccc(-c2nc3ccccn3c2/C=C/C(=O)c2cc(OC)c(OC)c(OC)c2)cc1`, in the assay with HS 578T breast, the GI50 is 2.89 µM and the TGI was found to be 51.7 µM.
Take `COC(=O)c1c(N)n[nH]c1N`: the TGI with KM20L2 colon, in the assay on M19-MEL melanoma and in the assay on RXF-631 renal was > 100 µM in each case.
As to `COc1ccc2c(c1)n([O-])c1ccccc1[n+]2=O`, in the assay with HS 578T breast, the GI50 is > 100 µM and 30.4 µM. For the same compound, the TGI in the assay with HS 578T breast and in the assay with MDA-N was > 100 µM throughout.
As for `COc1cc2c(cc1Nc1nc(Nc3ccsc3C(N)=O)c3cc[nH]c3n1)N(C(=O)CN(C)C)CCC2(C)C`, in the assay on HS 578T breast, the GI50 was 1.11 µM and the TGI came out at 5.13 µM.
The corresponding values for `CN1CCN(c2ccc3nc(-c4ccc5nc(-c6ccc(OCCC(C)(C)C)cc6)[nH]c5c4)[nH]c3c2)CC1` are 10.5 µM and 37.1 µM.
The like results for `COc1ccc(OC)c(/C=C(/C)[N+](=O)[O-])c1` were, in that order, 3.47 µM and 22.9 µM.
With `COC(=O)C1=C(C)NC(C)=C(C(=O)OC)C1/C=C(Cl)/C=C/c1ccccc1`, in the assay on HS 578T breast, the GI50 is 38.4 µM and the TGI was > 100 µM.
Consider `Nc1nc(-c2ccccc2)nc2c1[n+]([O-])c1ccccc1[n+]2[O-]`, for which, in the assay on HS 578T breast, the TGI was > 100 µM.
In the case of `CCN(C(=O)c1cc(F)ccc1Oc1cncnc1N1CC2(CCN(CC3CCC(NS(=O)(=O)CC)CC3)CC2)C1)C(C)C` (stereo not drawn), in the assay with HS 578T breast, the GI50 is > 100 µM and the TGI is > 100 µM.
For `O=C1c2ccccc2C(=O)c2c1ccc(C1C(=O)c3ccccc3C1=O)c2-c1c(C2C(=O)c3ccccc3C2=O)ccc2c1C(=O)c1ccccc1C2=O`, the TGI in the assay with HS 578T breast and in the assay on MDA-N was > 100 µM throughout.
With `Cc1cc(Cl)ccc1NC(=O)c1cc2ccccc2cc1O`, in the assay with HS 578T breast, the GI50 is 1.31 µM and the TGI is > 100 µM.
In the case of `C=C1CCC2C(C)(C)CCC[C@]2(C)[C@H]1CO` (stereo partly drawn), in the assay on HS 578T breast, the GI50 was > 100 µM and the TGI is > 100 µM.
In the assay with MDA-N, `C=C1CC/C=C(\C)C(=O)C[C@@H]2[C@@H]1CC2(C)C` came in with a TGI of 3.16 µM.
On to `CN(C)CCNC(=O)c1cccc2c1nc(-c1ccccc1)c1ccccc12`, for which the TGI is 17.3 µM with M19-MEL melanoma and 3.06 µM in the assay on RXF-631 renal.
Take `O=C(CCC(=O)C(C(=O)c1ccccc1)c1ccccc1)Nc1cccc(C(F)(F)F)c1` (stereo not drawn): the TGI in the assay with KM20L2 colon, in the assay with LXFL 529 NSCLC and in the assay on M19-MEL melanoma was > 100 µM throughout.
Consider `COc1ccc(/C(C#N)=C/c2ccc(OC)c(OC)c2)cc1`, for which the TGI in the assay with HS 578T breast and in the assay on MDA-N was > 100 µM throughout.
As for `O=C(/C=C/c1cc([N+](=O)[O-])ccc1Cl)c1ccccc1`, in the assay on HS 578T breast, the GI50 was 21.2 µM and the TGI was found to be 61.7 µM.
The like results for `O=C(NCc1ccc(Cn2c(=O)sn(-c3ccccc3)c2=O)cc1)OCc1ccc2c(Br)cc(Br)c(O)c2n1` were, in that order, 1.62 µM and 4.9 µM.
`CC1(C)Cc2cc(C(=O)O)c3c(c2C1=O)COCC3`: the TGI in the assay with KM20L2 colon, with LXFL 529 NSCLC and in the assay with M19-MEL melanoma was > 100 µM each time.
In the case of `Oc1[nH]c2ccc(Cl)cc2c1/C=c1/ccc2c(c1)N=C(c1ccc(F)cc1)N=2`, in the assay on HS 578T breast, the GI50 was 2.31 µM and the TGI is 7.51 µM.
As to `NC(=O)c1ccc2nc(-c3ccc(Oc4ccc(Cl)cc4)cc3)[nH]c2c1`, in the assay on HS 578T breast, the GI50 is 24.2 µM and 16.5 µM; the TGI is 75 µM and 42.6 µM.
